pIC50: −log10 of the molar value.
Key:
Assay type in all cases: in vitro ADME
CYP3A4 [1] = molecular target: T1, CYP3A4 (Homo sapiens (Human), UniProt P08684); experiment: Inhibition of site of metabolism of testosterone in human liver microsome CYP3A4; details: testosterone substrate
Experimental: (§1) • 1. Phosphate buffer (20×PBS, purchased from Sangon); • 2. NADPH (ACROS, A2646-71-1); • 3. Human liver microsome (Corning Gentest, Cat No, 452161, Lot No. 905002, Donor36); • 4. ABI QTrap 4000 LC-MS System (AB Sciex); • 5. ZORBAX Extend-C18, 3×50 mm, 3.5 μm (Agilent, USA); • 6. CYP probe substrate (testosterone, Vocko, CAS No. [58-22-0]/75 μM) and positive control inhibitor (ketoconazole, SIGMA, Cat No. K1003-100MG).
A 100 mM PBS buffer was prepared. […]. A 0.25 mg/mL microsome solution, a 7.5 mM MgCl2 and a 5 mM NADPH solution were prepared using the buffer. A 30 mM stock solution was diluted with DMSO to obtain 30 mM, 10 mM, 3 mM, 1 mM, 0.3 mM, 0.03 mM, 0.003 mM and 0 mM serial solutions I, which were further diluted 200-fold with phosphate buffer (PBS) to obtain serial test solutions II (150, 50, 15, 5, 1.5, 0.15, 0.015 and 0 μM). A testosterone working solution was diluted with PBS to […].
40 μL of a 0.25 mg/mL microsome solution prepared in 7.5 mM MgCl2 and 20 μL of each of the 375 μM testosterone working solution and the compound working solutions (150, 50, 15, 5, 1.5, 0.15, 0.015 and 0 μM) were measured out and well mixed. Ketoconazole at the same concentration was used in place of the compounds as a positive control group. The mixtures were pre-incubated […] at 37° C. for 5 min at the same time. After 5 minutes, 20 μL of NADPH was added to each well to start reactions. The mixtures were incubated for 30 min. After 30 minutes, 250 μL of internal standard-containing acetonitrile was added to all the samples. The mixtures were well mixed, shaken at 800 rpm for 10 min, and then centrifuged at 3700 rpm for 10 min. 100 μL of the supernatant and 80 μL of ultrapure water were well mixed and subjected to LC-MS/MS analysis.
The IC50 values of the drugs for the site of metabolism of testosterone in CYP3A4 were calculated using Graphpad Prism and are shown in Table 6.

CYP3A4 [2] = molecular target: T1, CYP3A4; experiment: Time-dependent inhibition of site of metabolism of midazolam in human liver microsome CYP3A4; details: midazolam substrate; for IC50 shift at 30 min: human, human liver microsomes, probe midazolam (3 µM)
Experimental: as §1, with “9050002, Donor, 36);” for “905002, Donor36);”, “(midazolam, TRC, M343000/3” for “(testosterone, Vocko, CAS No. [58-22-0]/75”, “(verapamil, Adamas Reagent Co, Ltd,” for “(ketoconazole, SIGMA,”, “25904A).” for “K1003-100MG).”
(§2) A 100 mM PBS buffer was prepared. A 0.25 mg/mL microsome solution, a 7.5 mM MgCl2 and a 5 mM NADPH solution were prepared using the buffer. A 30 mM stock solution was diluted with DMSO to obtain 30 mM, 10 mM, 3 mM, 1 mM, 0.3 mM, 0.1 mM, 0.03 mM and 0 mM serial solutions I, which were further diluted 200-fold with phosphate buffer (PBS) to obtain serial test solutions II (150, 50, 15, 5, 1.5, 0.5, 0.15 and 0 μM). A midazolam working solution was diluted with PBS to 15 μM.
(§3) The serial test solutions prepared above were well mixed by shaking and aliquoted in 20 μL portions into corresponding reaction plates (+NADPH, T0 and −NADPH groups were set). Three parallel tests were set. 40 μL of the liver microsome working solution was added to each 96-well plate. 20 μL of a corresponding substrate solution was added to the T0 plate. 20 μL of NADPH was added to the TO plate and +NADPH group. A timer was started, and the plates were incubated in a water bath at 37° C. After 30 min of incubation, the TO plate was taken out, and the reaction was terminated with 250 μL of an internal standard-containing ACN solution. The +NADPH group was supplemented with 20 μL of the corresponding substrate solution, and the −NADPH group was supplemented with 20 μL of the corresponding substrate solution and […]. A timer was started, and the plates were incubated in a water bath at 37° C. After 30 min of incubation, the plates were taken out, and the reactions were terminated with 250 μL of an internal standard-containing ACN solution. Then the plates were shaken on a shaker at 800 rpm for 10 min and centrifuged at 4000 rpm for 15 min. 100 μL of the supernatant and 80 μL of ultrapure water were well mixed and subjected to LC-MS/MS analysis.
The IC50 values of the drugs for the site of metabolism of midazolam in CYP3A4 were calculated using Graphpad Prism and are shown in Table 7.

CYP3A4 [3] = molecular target: T1, CYP3A4; experiment: Time-dependent inhibition of site of metabolism of testosterone in human liver microsome CYP3A4; details: testosterone substrate; for IC50 shift at 30 min: human, human liver microsomes, probe testosterone (75 µM)
Experimental: as §1, with “(verapamil, Adamas Reagent Co Ltd,” for “(ketoconazole, SIGMA,”, “25904A).” for “K1003-100MG).”
as §2, §3
The IC50 values of the drugs for the site of metabolism of testosterone in CYP3A4 were calculated using Graphpad Prism and are shown in Table 8.

[4] = 30 min pre-incubation with NADPH

T1 sequence (P08684 whole entry): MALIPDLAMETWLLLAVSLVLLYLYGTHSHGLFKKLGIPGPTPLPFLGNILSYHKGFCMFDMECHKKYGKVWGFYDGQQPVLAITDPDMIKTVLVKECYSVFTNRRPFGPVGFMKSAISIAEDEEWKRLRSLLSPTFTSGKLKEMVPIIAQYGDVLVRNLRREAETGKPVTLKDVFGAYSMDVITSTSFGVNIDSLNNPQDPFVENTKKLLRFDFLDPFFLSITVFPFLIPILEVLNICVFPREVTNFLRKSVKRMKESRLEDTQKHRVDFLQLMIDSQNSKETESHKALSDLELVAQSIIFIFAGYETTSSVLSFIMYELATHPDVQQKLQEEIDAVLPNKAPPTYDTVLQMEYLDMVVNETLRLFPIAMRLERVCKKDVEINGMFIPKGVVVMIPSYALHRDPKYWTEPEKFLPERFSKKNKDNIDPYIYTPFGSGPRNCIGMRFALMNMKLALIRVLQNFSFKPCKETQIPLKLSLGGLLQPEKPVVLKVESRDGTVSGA

| Structure (SMILES) | IC50 (CYP3A4 [1]) [µM] | IC50 shift at 30 min (CYP3A4 [2]) | pIC50 (CYP3A4 [2]; [4]) | pIC50 (CYP3A4 [2]; pre-incubation without NADPH) | IC50 shift at 30 min (CYP3A4 [3]) | pIC50 (CYP3A4 [3]; [4]) | pIC50 (CYP3A4 [3]; pre-incubation without NADPH) | IC50 Shift (CYP3A4 [3]) |
| --- | --- | --- | --- | --- | --- | --- | --- | --- |
| C[C@@H]1Cc2cc3c(cc2[C@@H](c2ccc(N[C@H]4CCN(CCCF)C4)cc2)N1CC(F)(F)F)OCO3 [Example 1, (S)-1-(3-fluoropropyl)-N-(4-((5R,7R)-7-methyl-6-(2,2,2-trifluoroethyl)-5,6,7,8-tetrahydro-[1,3]dioxolo[4,5-g]isoquinolin-5-yl)phenyl)pyrrolidin-3-amine] | 7.31 | – | – | – | – | – | – | – |
| C[C@@H]1Cc2cc3c(cc2[C@@H](c2c(F)cc(N[C@H]4CCN(CCCF)C4)cc2F)N1CC(F)(F)F)OCO3 [Example 2, (S)—N-(3,5-difluoro-4-((5S,7R)-7-methyl-6-(2,2,2-trifluoroethyl)-5,6,7,8-tetrahydro-[1,3]dioxolo[4,5-g]isoquinolin-5-yl)phenyl)-1-(3-fluoropropyl)pyrrolidin-3-amine] | > 30 | – | – | – | – | – | – | – |
| C[C@@H]1Cc2cc3c(cc2[C@@H](c2ccc(N[C@H]4CCN(CCCF)C4)cc2)N1CC(F)(F)CO)OCO3 [Example 3, 2,2-Difluoro-3-((5R,7R)-5-(4-(((S)-1-(3-fluoropropyl)pyrrolidin-3-yl)amino)phenyl)-7-methyl-7,8-dihydro-[1,3]dioxolo[4,5-g]isoquinolin-6(5H)-yl)propan-1-ol] | 14.6 | – | – | – | – | – | – | – |
| C[C@@H]1Cc2cc3c(cc2[C@@H](c2ccc(N[C@H]4CCN(CCCF)C4)cn2)N1CC(F)(F)CO)OCO3 [Example 4, 2,2-Difluoro-3-((5S,7R)-5-(5-(((S)-1-(3-fluoropropyl)pyrrolidin-3-yl)amino)pyridin-2-yl)-7-methyl-7,8-dihydro-[1,3]dioxolo[4,5-g]isoquinolin-6(5H)-yl)propan-1-ol] | 15.5 | 1 | 5.61 | 5.61 | 1 | 5.62 | 5.60 | – |
| [2H]C1([2H])Oc2cc3c(cc2O1)[C@@H](c1ccc(N[C@H]2CCN(CCCF)C2)cn1)N(CC(F)(F)CO)[C@H](C)C3 [Example 12, 2,2-Difluoro-3-((5S,7R)-5-(5-(((S)-1-(3-fluoropropyl)pyrrolidin-3-yl)amino)pyridin-2-yl)-7-methyl-7,8-dihydro-[1,3]dioxolo[4,5-g]isoquinolin-6(5H)-yl-2,2-d2)propan-1-ol] | 23.8 | 0.9 | 5.04 | 4.99 | 0.5 | 4.94 | 4.60 | – |
| [2H]C1([2H])Oc2cc3c(cc2O1)[C@@H](c1ccc(NC2CN(CCCF)C2)cn1)N(CC(F)(F)CO)[C@H](C)C3 [Example 13, 2,2-Difluoro-3-((5S,7R)-5-(5-((1-(3-fluoropropyl)azetidin-3-yl)amino)pyridin-2-yl)-7-methyl-7,8-dihydro-[1,3]dioxolo[4,5-g]isoquinolin-6(5H)-yl-2,2-d2)propan-1-ol] | – | – | – | – | – | – | – | No TDI |

— patent US12428428B2, “Tricyclic tetrahydroisoquinoline derivative, preparation method therefor and application thereof in medicine” (JIANGSU HENGRUI MEDICINE CO., LTD., priority 2020, dated 2025)
